According to PubChem BioAssay (NCI):
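Growth conditions: 96-well plates. Treatment: test compound, 48 hours, 5 concentrations. Analysis: linear interpolation between bracketing concentrations; unreached endpoints set to highest concentration. At the TGI there is no net growth.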

Assays:
Assay in all cases: NCI-60 cell line screen, 48 h
T-47D breast = tested on: T-47D breast
A498 renal = tested on: A498 renal
SW-620 colon = tested on: SW-620 colon
DU-145 prostate = tested on: DU-145 prostate
MOLT-4 leukemia = tested on: MOLT-4 leukemia
HCT-116 colon = tested on: HCT-116 colon
HL-60(TB) leukemia = tested on: HL-60(TB) leukemia
NCI-H522 lung = tested on: NCI-H522 lung
LOX IMVI melanoma = tested on: LOX IMVI melanoma
UACC-257 melanoma = tested on: UACC-257 melanoma
PC-3 prostate = tested on: PC-3 prostate
MALME-3M melanoma = tested on: MALME-3M melanoma
SNB-75 CNS = tested on: SNB-75 CNS
UACC-62 melanoma = tested on: UACC-62 melanoma
MCF7 breast = tested on: MCF7 breast
U251 CNS = tested on: U251 CNS
M14 melanoma = tested on: M14 melanoma
K-562 leukemia = tested on: K-562 leukemia

Structure (SMILES)	TGI (T-47D breast) [µM]	TGI (A498 renal) [µM]	TGI (SW-620 colon) [µM]	TGI (DU-145 prostate) [µM]	TGI (MOLT-4 leukemia) [µM]	TGI (HCT-116 colon) [µM]	TGI (HL-60(TB) leukemia) [µM]	TGI (NCI-H522 lung) [µM]	TGI (LOX IMVI melanoma) [µM]	TGI (UACC-257 melanoma) [µM]	TGI (PC-3 prostate) [µM]	TGI (MALME-3M melanoma) [µM]	TGI (SNB-75 CNS) [µM]	TGI (UACC-62 melanoma) [µM]	TGI (MCF7 breast) [µM]	TGI (U251 CNS) [µM]	TGI (M14 melanoma) [µM]	TGI (K-562 leukemia) [µM]
Cc1c(C=C(C#N)C#N)c(=O)n(C)c(=O)n1C	> 100	> 100	> 100	> 100	> 100	> 100	> 100	> 100	> 100	> 100	> 100	> 100	> 100	> 100	> 100	> 100	> 100	> 100
C1COCCOP2(N3CC3)=NP(N3CC3)(=NP(N3CC3)(N3CC3)=N2)OCCOCCO1 (centres undefined)	> 100	> 100	> 100	> 100	> 100	> 100	> 100	> 100	> 100	> 100	> 100	> 100	> 100	> 100	> 100	> 100	> 100	> 100
Cc1ccc(S(=O)(=O)N/N=C2\CC3C4CCC3C2C4)cc1 (centres undefined)	> 100	> 100	> 100	> 100	> 100	> 100	> 100	> 100	> 100	> 100	> 100	> 100	> 100	> 100	> 100	> 100	> 100	> 100
Cc1cc(C)nc(NS(=O)(=O)c2ccc(NC(=O)c3ccc4nc5ccccc5c(Nc5ccc(S(=O)(=O)Nc6nc(C)cc(C)n6)cc5)c4c3)cc2)n1	> 100	> 100	> 100	> 100	78.1	> 100	79.1	53.5	43.4	> 100	> 100	> 100	> 100	> 100	84.5	> 100	> 100	> 100
CC1(C)N=C(N)N=C(N)N1CCCCc1ccccc1	> 78.1	> 100	> 100	> 100	> 91.6	> 100	> 31.1	37.4	> 100	> 75.9	> 77	83.4	97.6	> 100	> 100	> 100	> 100	> 100
COc1ccc(/C=C2\CC3C4CC=C5C[C@@H](O)CC[C@]5(C)C4CC[C@]3(C)C2=O)cc1OC (some centres undefined)	> 100	93.6	> 100	> 100	83.4	> 100	> 100	57.6	> 100	> 100	> 100	> 100	> 100	> 100	> 100	> 100	> 100	> 100
COc1cc2c3c4c1OCc1c5c(cc(c1-4)CC3[N+](C)(C)CC2)OCO5 (centres undefined)	> 100	> 100	> 100	> 100	> 100	> 100	> 100	98	> 100	> 100	> 100	> 100	> 100	> 100	> 100	> 64.1	> 100	> 100
O=C1Cc2c([nH]c3cc(Br)ccc23)-c2ccccc2N1	84.1	49	52.5	79.7	40.9	15.9	> 100	52.7	37		44.3	48.1	44.9	49.2	> 100	31.8	37.5	> 100
Cc1cn(C2CC(O)C(Cn3nncc3Cn3ccc(=O)[nH]c3=O)O2)c(=O)[nH]c1=O (centres undefined)	> 100	> 100	> 100	> 100	> 100	> 100	> 100	> 100	> 100	> 100	> 100	> 100	> 100	> 100	> 100	> 100	> 100	
CC(C)=C=CC(C)(C)NS(=O)(=O)NC(C)(C)C=C=C(C)C	> 100	> 100	> 100	> 100		> 100	> 100	> 100	> 100	> 100	> 100	> 100	> 100	> 100	> 100	> 100	> 100	> 100
Cc1ccc2c(c1)C/C(=C\c1ccccc1C(=O)O)C2=O	> 100	> 100	> 100	> 100	> 100	> 100	> 100	> 100	> 100	> 100	> 100	> 100	> 100	> 100	> 100	> 100		> 100
